Measurements reported in patent US20230386615A1, “BINDING SITE IN TYPE 1 RYANODINE RECEPTOR” (The Trustees of Columbia University in the City of New York, priority 2021, published 2023).

Assays:
RyR1-WT [1] = target: T1, RyR1-WT (Oryctolagus cuniculus, UniProt P11716); type: binding, rabbit
T1 construct: Each fragment was subcloned into a full length RyR1 construct in pcDNA3.1 vector; expressed in transfected cells; host or cells: HEK293 (also 293T/17) cells, pcDNA3.1

RyR1-W996A [2] = target: T2, RyR1-W996A (Oryctolagus cuniculus, UniProt P11716, W996A); type: binding, rabbit
T2 construct: Each fragment was subcloned into a full length RyR1 construct in pcDNA3.1 vector; expressed in transfected cells; host or cells: HEK293 (also 293T/17) cells, pcDNA3.1

RyR1 [3] = target: T3, RyR1 (Oryctolagus cuniculus, UniProt P11716); experiment: S107 binding in the presence of increasing concentrations of ATP or ADP; set-up: species or system rabbit
T3 construct: from tissue; host or cells: rabbit skeletal muscle sarcoplasmic reticulum microsomes

[4] = test system: HEK293 cells expressing mutant RyR1; experiment: Ca2+ imaging, caffeine-induced Ca2+ release; type: cell-based, rabbit; conditions: both mutants, 1 mM H2O2, 10 mM caffeine
RyR1-W882A [5] = target: T4, RyR1-W882A (Oryctolagus cuniculus, UniProt P11716, W882A); conditions: radiolabeled ATP
RyR1 [6] = target: T3, RyR1; experiment: 3H-S107 radioligand binding, skeletal SR microsomes untreated or treated with PKA and H2O2; set-up: species or system rabbit
Description: For PKA-phosphorylated channel experiments, […] of microsomes were in vitro phosphorylated with 40 units of PKA catalytic subunit (SigmaAldrich, Cat #P2645) for 30 min at 30° C. in the presence of the following buffer: 50 mM Tris/PIPES pH 7.0, 8 mM MgCl2, 1 mM MgATP, and 1 mM EGTA. The samples were then spun by centrifuge for 10 min at 100,000×g. The resulting pellets were washed four times with wash buffer (300 mM sucrose, 10 mM imidazole, pH 7.4) and aliquots were frozen in liquid nitrogen and stored at −80° C. Oxidation of RyR1 was induced by incubating microsomes with 1 mM H2O2 for 30 min at room temperature prior to washing.
Titrative ^3H-S107 binding, performed in the absence and presence of 10 mM NaATP, was initiated by addition of ^3H-S107 (10-10,000 nM final concentration) to 0.1 mg skeletal sarcoplasmic reticulum (SR) microsomes in binding buffer (50 mM Tris-HCl, pH 7.5, 150 mM NaCl, 25 mM MgCl2). […] All samples were incubated at room temperature for 30 min ^3H-S107 binding was stopped by addition of ice-cold binding buffer prior to filtration through GF/B Whatman filters pre-equilibrated with 0.015% PE. Filters were washed 3 times with 5 mL of wash buffer (10 mM MOPS, 200 mM NaCl, pH 7.4), dried, and counted. Data were normalized to ^3H-ryanodine binding. […].

purified RyR1 = target: T5, purified RyR1 (Oryctolagus cuniculus, UniProt P11716); experiment: 3H-S107 binding to purified RyR1 in absence and presence of 10 mM ATP; set-up: species or system rabbit
T5 construct: RyR1 was purified from rabbit skeletal muscle; from tissue

RyR1-WT [7] = target: T1, RyR1-WT; experiment: 3H-S107 binding, recombinant RyR1 HEK293 microsomes treated with PKA and H2O2; set-up: species or system rabbit
RyR1-W996A [8] = target: T2, RyR1-W996A; experiment: as above; set-up: species or system rabbit
RyR1-W882A [9] = target: T4, RyR1-W882A; experiment: as above; set-up: Each fragment was subcloned into a full length RyR1 construct in pcDNA3.1 vector; expressed in transfected cells; host or cells: HEK293 (also 293T/17) cells, pcDNA3.1; species or system rabbit; conditions: W882A mutation
[10] = first section of TABLE 5, 10 mM ATP added
[11] = third section of TABLE 5, ADP in place of ATP

Structure (SMILES): Nc1ncnc2c1ncn2[C@@H]1O[C@H](COP(=O)(O)OP(=O)(O)O)[C@@H](O)[C@H]1O [ADP, adenosine diphosphate]
- stoichiometry (RyR1-WT [1]): 12 molecules per channel
- ADP binding stoichiometry, in words (RyR1-W996A [2]; RyR1-W996A): greater than one molecule per channel
- competition with S107 binding (RyR1 [3]): significant inhibitory effect

Structure (SMILES): COc1ccc2c(c1)CN(Cc1ccc(C(=O)O)cc1)CCS2 [Compound 1, 4-[(7-methoxy-2,3-dihydro-1,4-benzothiazepin-4(5H)-yl)methyl]benzoic acid]
- caffeine-induced calcium release after oxidation [4]: unaffected

Structure (SMILES): Nc1ncnc2c1ncn2[C@@H]1O[C@H](COP(=O)(O)OP(=O)(O)OP(=O)(O)O)[C@@H](O)[C@H]1O [ATP, adenosine triphosphate]
- ATP binding, in words (RyR1-W996A [2]; W996A mutant): significantly reduced
- ATP binding, in words (RyR1-W882A [5]): maintained, although slightly reduced

Structure (SMILES): COc1ccc2c(c1)CN(C)CCS2 [Compound S107]
- Bmax (RyR1 [6]; PKA/H2O2 treated microsomes): 3.7 ± 0.2 mol S107/mol RyR1
- Kd (RyR1 [6]; PKA/H2O2 treated microsomes): 155 ± 9 nM
- Bmax (RyR1 [6]; Untreated microsomes): 0.4 ± 0.1 mol S107/mol RyR1
- Kd (RyR1 [6]; Untreated microsomes): 150 ± 7 nM
- Bmax (purified RyR1; 10 mM ATP): 3.0 ± 0.2 mol S107/mol RyR1
- Kd (purified RyR1; 10 mM ATP): 152 ± 7 nM
- Bmax (purified RyR1; No ATP): 0.4 ± 1.0 mol S107/mol RyR1
- Kd (purified RyR1; No ATP): 147 ± 6 nM
- Bmax (RyR1-WT [7]; [10]): 3.5 ± 0.3 mol S107/mol RyR1
- Kd (RyR1-WT [7]; [10]): 200 ± 11 nM
- Bmax (RyR1-WT [7]; [11]): 3.6 ± 0.3 mol S107/mol RyR1
- Kd (RyR1-WT [7]; [11]): 188 ± 12 nM
- Kd (RyR1-W996A [8]): 250 ± 10 nM
- Bmax (RyR1-W996A [8]; RyR1-W996A, third section of TABLE 5, ADP in place of ATP): 2.0 ± 0.2 mol S107/mol RyR1
- 3H-S107 binding to the channel, in words (RyR1-W882A [9]): abolished
